Peptide text beside a SMILES is read from it.
Tests used:
burn wound length = assay: Post-burn wound healing study (x8A); type: in vivo, rats; settings: burn-group treatment as labelled (4 mg/kg), then vehicle weeks 2-6
Protocol: Experiment x8A. Male rats treated with 4 mg/kg nephrilin peptide IM3N1 for 2 weeks in Example 5 were subsequently treated 3× weekly (Mon-Wed-Fri) for 4 weeks with vehicle (n=12) or with 1 mg/kg IM3vlp peptide (n=12) by subcutaneous bolus injection (200 uL volume). Longitudinal wound length between the hairlines was measured at 6 weeks, and this value was corrected for nose-to-ear length and width of each animal. The mean resulting value (in arbitrary units) is shown below.

[1] = NTA-metal-affinity ELISA (Experiment x2A); type: binding
Protocol: The NTA-metal-affinity ELISA assay was performed using 96-well NTA-metal-coated plates readily available from commercial sources such as Qiagen (Germantown, MD). The NTA was charged with ferrous or ferric iron, zinc, copper, calcium, vanadium, ruthenium, cobalt, titanium, manganese or other metals. 400 ng of immodulator peptide IM3N1 in PBS buffer was added per plate. After incubation at room temperature for 60 minutes, excess peptide was washed off and peptide was detected by ELISA using an anti-immodulator rabbit primary antibody (A2501) and horseradish peroxidase conjugated to a secondary anti-rabbit antibody (arbitrary units)*vs EDTA control: • EDTA (no metal): 0.047±0.001 • Fe2+ (Ferrous): 0.844±0.026 (p<0.001*) • Fe3+ (Ferric): 0.848±0.011 (p<0.001*) • Zn2+ (Zinc): 0.194±0.089 (p<0.05*) • Cu2+ (Copper): 0.229±0.086 (p<0.05*)

rat scald model = assay: Rat scald model, N-terminally modified nephrilin-iron complexes (x5B); type: in vivo, Sprague Dawley rats; settings: male rats, burn, 2 mg/kg peptide complexed with ferric iron, sc days 1-7
Protocol: Effect of N-terminal modifications on the efficacy of nephrilin IM3N1 peptide in the rat scald model. In this study, five nephrilin-iron binary complexes were compared: IM3N1 (unmodified) and the following: IM3N1vlp (valproic acid), IM3N1dec (decanoic acid), IM3N1fen (fenofibric acid), and IM3N1ibu (ibuprofen). Adult male Sprague Dawley rats (300 gm, Charles River Laboratories, Wilmington, MA, USA) were injected with peptides formulated with equimolar metal ferric iron once daily by subcutaneous bolus injection, days 1-7.
Treatment group sizes were (n=6) for each group: group S=sham-treated; group B=burn+vehicle; group N1=burn+2 mg/kg nephrilin IM3N1; group N1V=burn+2 mg/kg IM3N1vlp; group N1D=burn+2 mg/kg IM3N1dec; group N1F=burn+2 mg/kg IM3N1fen; group N1I=burn+2 mg/kg IM3N1ibu. The first dose was administered after completion of the scald procedure. Injection volume was 400 uL. Control animals received the same volume of vehicle. Rat scald model was performed and measurements taken as described in Experiment x5A.

[2] = Alexa488-SA-labelled IM3 binding to metal-charged NTA-coated plate (x2B c)
Protocol: (§1) NTA-metal-affinity fluorescence assay was performed using 96-well NTA-metal-coated plates readily available from commercial sources such as Qiagen (Germantown, MD). NTA was charged with ferrous or ferric iron, zinc, copper, calcium, vanadium, ruthenium, cobalt, titanium, manganese or other metals. 400 ng of FITC-labeled immodulator peptide (or biotinylated immodulator peptide complexed to Alexa-488-labeled streptavidin) in PBS buffer was added per plate. After incubation at room temperature for 60 minutes, excess peptide was washed off and peptide was detected by measuring fluorescence (excitation 490 nm, emmission 525 nm) in a fluorometer. • (a) Using FITC-labeled IM3 peptide (1 ug/well) in the fluorescent binding assay: • EDTA-treated control: 2,251±1,186 • Ferrous iron: 170,441±11,264 (p<0.001)* • Copper: 13,644±5566 (p<0.05)* • Calcium: 48,822±11,990 (p<0.01)* • *p values are relative to EDTA-treated control • (b) Competition binding assay to ferrous iron, calcium, copper and zinc-charged NTA-coated plates using FITC-labeled IM3 peptide (0.5 uM) and 8× (4 uM) unlabelled competitor peptides IM3N1, IM3N2 (*all comparisons to PBS control are p<0.01); # fluorescent value of binding to […] was set at 100.
• (c) Alexa488-SA-labelled immodulator peptide IM3 (400 ng/well) bound to NTA-coated plate charged with the indicated metals: # fluorescent value of binding to ferrous iron was set at 100. *p<0.01 relative to control.
Ferrous iron # (100±2.6*); Control (no metal): 6.4±3.1; Ferric iron: 94.1±6.6*; Calcium: 47.6±3.7*; Vanadium: 53.9±5.5*; Manganese: 54.4±11.2*; Cobalt: 25.4±2.3*; Copper: 58.4±6.4*; Zinc: 71.4±8.3*; Ruthenium: 67.8±8.3*; (d) Alexa488-SA-labelled immodulator peptide IM1, IM2, IM3, IM4, IM5, IM6 (400 ng/well) were bound to NTA-coated plate charged with the indicated metals: # background (no peptide) control set to 1.0;*p<0.05, **p<0.01 vs “no peptide”

[3] = NTA-metal-affinity fluorescence assay, FITC-labeled IM3 (x2B a); type: binding; settings: FITC-labeled IM3 1 ug/well
Protocol: as §1

RGVTEDYLRLETLVQKVVSKGFYKKKQCRPSKGRKRGFCW [IM3N1]
corrected longitudinal wound length at 6 weeks (burn wound length): 131.3 ± 18.6 arbitrary units | peptide bound, ELISA ([1]; Cu2+ (Copper)): 0.229±0.086 arbitrary units | peptide bound, ELISA ([1]; EDTA (no metal), 400 ng peptide): 0.047±0.001 arbitrary units | peptide bound, ELISA ([1]; Fe2+ (Ferrous)): 0.844±0.026 arbitrary units | peptide bound, ELISA ([1]; Fe3+ (Ferric)): 0.848±0.011 arbitrary units | peptide bound, ELISA ([1]; Zn2+ (Zinc)): 0.194±0.089 arbitrary units | 1: early inflammation (24-hr plasma IL-6) (rat scald model): 38.5 ± 27.8 pg/mL | 2a: 14-day plasma inflammasome marker IL18 (rat scald model): 220.4 ± 32.1 pg/mL | 2b: 14-day plasma inflammasome marker IL1b (rat scald model): 52.9 ± 7.8 pg/mL | 3a: 14-day plasma hyperangiogenesis marker VEGF-A (rat scald model): 37.8 ± 15.3 pg/mL | 3b: 14-day plasma hyperangiogenesis marker CCL5 (rat scald model): 248.3 ± 29.7 pg/mL | 3c: 14-day plasma hyperangiogenesis marker CXCL5 (rat scald model): 855 ± 233 pg/mL | 4: glycemic control, 14-day GTT (AUC) (rat scald model): 136.4 ± 69.2 mg·dL·h | 5: kidney function, 14-day plasma creatinine (rat scald model): 0.31 ± 0.09 mg/dL | 6: systemic oxidative stress, 14-day plasma OHDG (rat scald model): 374 ± 187 pg/mL | 7: weight loss (slope) (rat scald model): 2.99 ± 0.53 | 3d: hyperangiogenesis marker PctRedPix (rat scald model): 6.53 ± 3.16

N=C(N)NCCC[C@H](NC(=O)CNC(=O)[C@H](CCCCN)NC(=O)[C@H](CO)NC(=O)[C@@H]1CCCN1C(=O)[C@H](CCCNC(=N)N)NC(=O)[C@H](CS)NC(=O)[C@H](CCC(N)=O)NC(=O)[C@H](CCCCN)NC(=O)[C@H](CCCCN)NC(=O)[C@H](CCCCN)NC(=O)[C@H](Cc1ccc(O)cc1)NC(=O)[C@H](Cc1ccccc1)NC(=O)CNC(=O)[C@H](CCCCN)NC(=O)[C@@H](N)CCCCN)C(=O)N[C@@H](CCCCN)C(=O)N[C@@H](CCCNC(=N)N)C(=O)NCC(=O)N[C@@H](Cc1ccccc1)C(=O)N[C@@H](CS)C(=O)N[C@@H](Cc1c[nH]c2ccccc12)C(=O)O [IM3] (H-KKGFYKKKQCRPSKGRKRGFCW-OH; N-terminus and C-terminus assumed)
fluorescence ([2]; Calcium, ferrous iron = 100): 47.6±3.7 | fluorescence ([2]; Cobalt, ferrous iron = 100): 25.4±2.3 | fluorescence ([2]; Control (no metal), ferrous iron = 100): 6.4±3.1 | fluorescence ([2]; Copper, ferrous iron = 100): 58.4±6.4 | fluorescence ([2]; Ferric iron, ferrous iron = 100): 94.1±6.6 | fluorescence ([2]; Ferrous iron, set at 100, 400 ng/well): 100±2.6 | fluorescence ([2]; Manganese, ferrous iron = 100): 54.4±11.2 | fluorescence ([2]; Ruthenium, ferrous iron = 100): 67.8±8.3 | fluorescence ([2]; Vanadium, ferrous iron = 100): 53.9±5.5 | fluorescence ([2]; Zinc, ferrous iron = 100): 71.4±8.3 | fluorescence ([3]; Calcium): 48,822±11,990 | fluorescence ([3]; Copper): 13,644±5566 | fluorescence ([3]; EDTA-treated control): 2,251±1,186 | fluorescence ([3]; Ferrous iron): 170,441±11,264

From patent US12102685B2, “Immodulator peptides covalently modified with small molecules” (priority 2020, dated 2024)
